Values after ≈ are worked out from the molar mass of the structure shown. Read-outs that look alike come from different tables or passages of the source.
What was measured:
[1] = tested on: LNCaP cells; assay: Cell viability (AlamarBlue), LNCaP prostate cancer cells; assay type: cell-based, human; design: key to EC50 (μM) in LNCaP cells: Inactive: less than 50% inhibition at the highest concentration tested at 50 μM; details: 72 hours of treatment
Procedure, shortened: (§1)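 Following a 72-hour incubation with escalating compound doses, applied one day after seeding, AlamarBlue fluorescence gave viability relative to untreated cells, from which half-maximal effective concentrations were calculated.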

[2] = tested on: RWPE1 cells; assay: Cell viability (AlamarBlue), RWPE1 normal prostate cells; assay type: cell-based, human; design: key to EC50 (μM) in RWPE1 cells: Inactive: less than 50% inhibition at the highest concentration tested at 50 μM; details: normal prostate cell line; for EC50 (μM) in RWPE1 cells: 72 hours of treatment; for EC50: Homo sapiens, RWPE-1, 72 hours of treatment
Description: (§2) In another exemplary method, half maximal effective concentration (EC50) was determined for some compounds and their isomers as disclosed herein in a variety of human cancer cell lines. In brief, cells from two prostate cancer cell lines (LNCaP, 22RV1), one glioblastoma cell line (U87), one breast cancer cell line (MCF7), a glioma cell line (LN18), a normal prostate cell line (RWPE1), and a glioblastoma cell line (T98G) were plated in a multi-well plate. After 24 hours, one of the compounds herein was added to the well at increasing concentrations. After 72 hours of treatment, cell viability was assessed using AlamrBlue® (Invitrogen) and fluorescence was read using the CLARIOstar Plus Multilabel Plate Reader (BMG Labtech). Samples were normalized to no treatment controls. EC50 values were determined using GraphPad Prism.

[3] = tested on: U87 cells; assay: Cell viability (AlamarBlue), U87 glioblastoma cells; assay type: cell-based, human; design: key to EC50 (μM) in U87 cells: Inactive: less than 50% inhibition at the highest concentration tested at 50 μM; details: 72 hours of treatment
Procedure, shortened: as §1

[4] = tested on: MCF7 cells; assay: Cell viability (AlamarBlue), MCF7 breast cancer cells; assay type: cell-based; details: Homo sapiens, 72 hours of treatment
Description: as §2

[5] = tested on: 22RV1 cells; assay: Cell viability (AlamarBlue), 22RV1 prostate cancer cells; assay type: cell-based, human; design: key to EC50 (μM) in 22RV1 cells: Inactive: less than 50% inhibition at the highest concentration tested at 50 μM; details: 72 hours of treatment
Procedure, shortened: as §1

[6] = Kinetic solubility in aqueous PBS buffer (HPLC-MS); assay type: physicochemical; details: kinetic from dmso stock
Description: In another exemplary method, central nervous system multiparameter optimization (CNS MPO) score and kinetic solubility of selected compounds was determined. CNS MPO score for compounds and their isomers disclosed herein were calculated using an algorithm that uses a weighted scoring function assessing 6 key physicochemical properties (clogP, clogD, MW, TPSA, HBD, and pKa) for blood-brain-barrier (BBB penetration). CNS MPO score ranged from 0 and 6.0 with scores≥4.0 used as a cut-off to select compounds that can have a high probability of accumulating in the CNS. Kinetic solubility of a compound is the maximum solubility of the fastest precipitating species of the compound. Kinetic solubility was determined by preparing a concentrated stock solution for compounds and their isomers disclosed herein in an organic solvent (DMSO), after which the solution was mixed with an aqueous PBS buffer and then filtered. Filtrate was tested to quantify the kinetic solubilty using HPLC-MS calibration curve. The CNS MPO Score and kinetic solubility of the compounds tested are provided in Table 7 where “ND” means not determined.

[7] = tested on: cancer cell; assay: Cancer cell viability, cell line not stated (per-compound ranges in description); assay type: cell-based; details: 'In some embodiments', values worded 'about', read-out: EC50 in cancer cell viability (range stated in description)
Description: as §2

[8] = DMSO stock mixed with aqueous PBS buffer, filtered, read-out: Kinetic Solubility
[9] = 'In some embodiments', values worded 'about', read-out: kinetic solubility (range stated in description)

Compound: COC1CC(C(=O)NC(=O)Nc2ccc(Oc3ccc(F)cn3)c(C)c2)C1 (single isomer, unassigned) [Compound 15A, N-((4-((5-fluoropyridin-2-yl)oxy)-3-methylphenyl)carbamoyl)-3-methoxycyclobutanecarboxamide]
- EC50 [1]: 1.6 µM
- EC50 (μM) in RWPE1 cells [2]: Inactive
- EC50 [3]: 5.5 µM
- EC50 [4]: 11.5 µM
- EC50 [5]: 4.1 µM

Compound: Cc1cc(NC(=O)NC(=O)C2COC2)ccc1Oc1ncc(Cl)cn1 [Compound 2, 1-{4-[(5-chloropyrimidin-2-yl)oxy]-3-methylphenyl}-3-(oxetane-3-carbonyl)urea]
- EC50 ([1]; Homo sapiens, LNCaP, 72 h): 19 µM
- EC50 [4]: 20.9 µM
- EC50 ([5]; Homo sapiens, 22Rv1, 72 h): 41 µM

Compound: COC1CCC(C(=O)NC(=O)Nc2ccc(Oc3ncccn3)c(F)c2)CC1 (centres unmarked) [Compound 13, 3-[3-fluoro-4-(pyrimidin-2-yloxy)phenyl]-1-(4-methoxycyclohexanecarbonyl)urea]
- EC50 ([1]; Homo sapiens, LNCaP, 72 h): 17.4 µM
- EC50 [4]: 11.3 µM
- EC50 ([5]; Homo sapiens, 22Rv1, 72 h): 14.1 µM

Compound: COC1CCC(C(=O)NC(=O)Nc2ccc(Oc3ncc(Cl)cn3)cc2F)CC1 (centres unmarked) [Compound 23, 3-{4-[(5-chloropyrimidin-2-yl)oxy]-2-fluorophenyl}-1-(4-methoxycyclohexanecarbonyl)urea]
- EC50 (μM) in LNCaP cells [1]: Inactive
- EC50 (μM) in RWPE1 cells [2]: Inactive
- EC50 (μM) in U87 cells [3]: Inactive
- EC50 ([5]; Homo sapiens, 22Rv1, 72 h): 30.6 µM

Compound: COC1CCC(C(=O)NC(=O)Nc2ccc(Oc3ccc(Cl)cn3)cc2F)CC1 (centres unmarked) [Compound 24, 3-{4-[(5-chloropyridin-2-yl)oxy]-2-fluorophenyl}-1-(4-methoxycyclohexanecarbonyl)urea]
- EC50 (μM) in LNCaP cells [1]: Inactive
- EC50 [2]: 31 µM
- EC50 (μM) in U87 cells [3]: Inactive
- EC50 (μM) in 22RV1 cells [5]: Inactive

Compound: COC1CC(C(=O)NC(=O)Nc2ccc(Oc3cnc(N4CCOCC4)nc3)c(C)c2)C1 (centres unmarked) [Compound 44, 3-methoxy-N-((3-methyl-4-((2-morpholinopyrimidin-5-yl)oxy)phenyl)carbamoyl)cyclobutane-1-carboxamide]
- EC50 ([1]; Homo sapiens, LNCaP, 72 h): 6.3 µM
- solubility kinetic [6, 8]: 0.95 µM (≈ 0.419 µg/mL)
- EC50 ([3]; Homo sapiens, U-87 MG, 72 h): 22 µM
- EC50 [4]: 2.5 µM
- EC50 ([5]; Homo sapiens, 22Rv1, 72 h): 17.8 µM

Compound: COC1CC(C(=O)NC(=O)Nc2ccc(Oc3nc4ccccc4s3)c(C)c2)C1 (centres unmarked) [Compound 56, N-((4-(benzo[d]thiazol-2-yloxy)-3-methylphenyl)carbamoyl)-3-methoxycyclobutane-1-carboxamide]
- EC50 ([1]; Homo sapiens, LNCaP, 72 h): 0.15 µM
- solubility kinetic [6, 8]: 1 µM (≈ 0.411 µg/mL)
- EC50 [2]: 22.4 µM
- EC50 ([3]; Homo sapiens, U-87 MG, 72 h): 0.89 µM
- EC50 ([5]; Homo sapiens, 22Rv1, 72 h): 0.35 µM

Compound: COC1CC(C(=O)NC(=O)Nc2ccc(Oc3ncc(C)s3)c(C)c2)C1 (centres unmarked) [Compound 60, 3-methoxy-N-((3-methyl-4-((5-methylthiazol-2-yl)oxy)phenyl)carbamoyl)cyclobutane-1-carboxamide]
- EC50 ([1]; Homo sapiens, LNCaP, 72 h): 0.88 µM
- EC50 ([3]; Homo sapiens, U-87 MG, 72 h): 0.32 µM
- EC50 [4]: 0.6 µM
- EC50 ([5]; Homo sapiens, 22Rv1, 72 h): 1.2 µM

Compound: O=C(NC(=O)C1CCCCC1)Nc1ccc(Oc2ncc(Cl)cn2)c(F)c1 [Compound 70, N-((4-((5-chloropyrimidin-2-yl)oxy)-3-fluorophenyl)carbamoyl)cyclohexanecarboxamide]
- EC50 (μM) in LNCaP cells [1]: Inactive
- EC50 (μM) in RWPE1 cells [2]: Inactive
- EC50 (μM) in U87 cells [3]: Inactive
- EC50 (μM) in 22RV1 cells [5]: Inactive

Compound: COC12CC(C(=O)NC(=O)Nc3ccc(Oc4nccs4)c(C)c3)(C1)C2 [drawing 270, 3-methoxy-N-((3-methyl-4-(thiazol-2-yloxy)phenyl)carbamoyl)bicyclo[1.1.1]pentane-1-carboxamide]
- EC50 [7]: 0.04 to 0.08 µM
- solubility kinetic [6, 9]: 1.5 to 3.5 µM (≈ 0.56 to 1.31 µg/mL)

Compound: COC12CC(C(=O)NC(=O)Nc3ccc(Oc4ccc(Cl)cn4)c(C)c3)(C1)C2 [drawing 271, N-((4-((5-chloropyridin-2-yl)oxy)-3-methylphenyl)carbamoyl)-3-methoxybicyclo[1.1.1]pentane-1-carboxamide]
- EC50 [7]: 0.01 to 0.16 µM

Compound: COC12CC(C(=O)NC(=O)Nc3ccc(Oc4ncc(Cl)cn4)c(C)c3)(C1)C2 [drawing 272, N-((4-((5-chloropyrimidin-2-yl)oxy)-3-methylphenyl)carbamoyl)-3-methoxybicyclo[1.1.1]pentane-1-carboxamide]
- EC50 [7]: 0.04 to 0.08 µM
- solubility kinetic [6, 9]: 1.5 to 3.5 µM (≈ 0.604 to 1.41 µg/mL)

Compound: COC12CC(C(=O)NC(=O)Nc3ccc(Oc4ccccn4)c(C)c3)(C1)C2 [drawing 273, 3-methoxy-N-((3-methyl-4-(pyridin-2-yloxy)phenyl)carbamoyl)bicyclo[1.1.1]pentane-1-carboxamide]
- EC50 [7]: 0.1 to 0.4 µM

Compound: COC12CC(C(=O)NC(=O)Nc3ccc(Oc4ncccn4)c(C)c3)(C1)C2 [drawing 274, 3-methoxy-N-((3-methyl-4-(pyrimidin-2-yloxy)phenyl)carbamoyl)bicyclo[1.1.1]pentane-1-carboxamide]
- EC50 [7]: 0.5 to 4 µM
- solubility kinetic [6, 9]: 25 to 30 µM (≈ 9.21 to 11.1 µg/mL)

Compound: COC12CC(C(=O)NC(=O)Nc3ccc(Oc4ncc(F)cn4)c(C)c3)(C1)C2 [drawing 275, N-((4-((5-fluoropyrimidin-2-yl)oxy)-3-methylphenyl)carbamoyl)-3-methoxybicyclo[1.1.1]pentane-1-carboxamide]
- EC50 [7]: 0.5 to 4 µM
- solubility kinetic [6, 9]: 85 to 91 µM (≈ 32.8 to 35.2 µg/mL)

Compound: COC12CC(C(=O)NC(=O)Nc3ccc(Oc4ccc(F)cn4)c(C)c3)(C1)C2 [drawing 276, N-((4-((5-fluoropyridin-2-yl)oxy)-3-methylphenyl)carbamoyl)-3-methoxybicyclo[1.1.1]pentane-1-carboxamide]
- EC50 [7]: 0.05 to 0.35 µM

Compound: COC12CC(C(=O)NC(=O)Nc3cc(C)c(Oc4ncc(Cl)cn4)c(F)c3)(C1)C2 [drawing 277, N-((4-((5-chloropyrimidin-2-yl)oxy)-3-fluoro-5-methylphenyl)carbamoyl)-3-methoxybicyclo[1.1.1]pentane-1-carboxamide]
- EC50 [7]: 0.034 to 0.065 µM
- solubility kinetic [6, 9]: 1.5 to 3.5 µM (≈ 0.631 to 1.47 µg/mL)

Compound: COC12CC(C(=O)NC(=O)Nc3cc(C)c(Oc4ccc(F)cn4)c(F)c3)(C1)C2 [drawing 278, N-((3-fluoro-4-((5-fluoropyridin-2-yl)oxy)-5-methylphenyl)carbamoyl)-3-methoxybicyclo[1.1.1]pentane-1-carboxamide]
- EC50 [7]: 0.087 to 0.63 µM

Compound: COC1CC(C(=O)NC(=O)Nc2ccc(C)c(Oc3nccs3)c2)C1 (centres unmarked) [drawing 279, 3-methoxy-N-((4-methyl-3-(thiazol-2-yloxy)phenyl)carbamoyl)cyclobutane-1-carboxamide]
- EC50 [7]: 0.01 to 0.05 µM
- solubility kinetic [6, 9]: 7 to 11 µM (≈ 2.53 to 3.98 µg/mL)

Compound: COC1CC(C(=O)NC(=O)Nc2ccc(C)c(Oc3ccccn3)c2)C1 (centres unmarked) [drawing 280, 3-methoxy-N-((4-methyl-3-(pyridin-2-yloxy)phenyl)carbamoyl)cyclobutane-1-carboxamide]
- EC50 [7]: 0.002 to 0.007 µM
- solubility kinetic [6, 9]: 10 to 14 µM (≈ 3.55 to 4.98 µg/mL)

Compound: COC1CC(C(=O)NC(=O)Nc2ccc(C)c(Oc3ccc(F)cn3)c2)C1 (centres unmarked) [drawing 281, N-((3-((5-fluoropyridin-2-yl)oxy)-4-methylphenyl)carbamoyl)-3-methoxycyclobutane-1-carboxamide]
- EC50 [7]: 0.005 to 0.03 µM
- solubility kinetic [6, 9]: 5 to 9 µM (≈ 1.87 to 3.36 µg/mL)

Compound: COC1CC(C(=O)NC(=O)Nc2ccc(C)c(Oc3ncccn3)c2)C1 (centres unmarked) [drawing 282, 3-methoxy-N-((4-methyl-3-(pyrimidin-2-yloxy)phenyl)carbamoyl)cyclobutane-1-carboxamide]
- EC50 [7]: 0.02 to 0.06 µM
- solubility kinetic [6, 9]: 13 to 17 µM (≈ 4.63 to 6.06 µg/mL)

Compound: COC12CC(C(=O)NC(=O)Nc3ccc(C)c(Oc4ncccn4)c3)(C1)C2 [drawing 283, 3-methoxy-N-((4-methyl-3-(pyrimidin-2-yloxy)phenyl)carbamoyl)bicyclo[1.1.1]pentane-1-carboxamide]
- EC50 [7]: 0.011 to 0.02 µM
- solubility kinetic [6, 9]: 4 to 8 µM (≈ 1.47 to 2.95 µg/mL)

Compound: COC12CC(C(=O)NC(=O)Nc3ccc(C)c(Oc4ccccn4)c3)(C1)C2 [drawing 284, 3-methoxy-N-((4-methyl-3-(pyridin-2-yloxy)phenyl)carbamoyl)bicyclo[1.1.1]pentane-1-carboxamide]
- EC50 [7]: 0.02 to 0.07 µM

Reference: patent US12404242B2, “Compositions and methods for making and using small molecules in the treatment of cancer” (Reglagene, Inc., priority 2021, dated 2025)
